Reference: patent US20110171329A1, “METHOD FOR TREATMENT OF NEURAL INJURIES” (priority 2009, published 2011)

Legend:
[1] = system: cortical mixed neuronal-glial cultures; assay: DCF assay of toxin-induced free radical formation in cortical mixed neuronal-glial cultures; format: cell-based, rat
Procedure: (§1) Mixed neuron-glia cell cultures were prepared from the spinal, mesencephalic and cortical regions of an embryonic Sprague-Dawley rat fetus (gestation day 15), respectively, as described in Tsai et al. (Ann. N.Y. Acad. Sci. 1042 (2005):338-348). Briefly, cells were dissociated with a mixture of papain/protease/deoxyribonuclease I (0.1%:0.1%:0.03%) and plated onto poly-lysine coated dishes at a density of 1 to 2×10^5 cells/cm^2 with Dulbecco's modified Eagle's medium (DMEM) supplemented with 10% fetal bovine serum (FBS). On the second day after cell seeding, the cultures were maintained in DMEM+10% FBS or in DMEM supplemented with N2 (Invitrogen, Carlsbad, Calif.) as serum-free medium.
(§2) On the 2nd or 3rd day after cell seeding, the cultures were firstly loaded with 50 μM DCFH-DA in serum-free medium (DMEM+N2) for 1 hr. The medium was then replaced with growth medium containing H2O2 (1 mM) or t-BOOH (0.75 mM) and the cultures were maintained in the growth medium for 2 hrs. HD2 (20 to 200 μg/ml) and baicalein (2 or 10 μM) were then added to the cultures within 10 minutes after the toxin treatment started, respectively. The resulted fluorescent DCF levels were measured by a fluorescence plate reader (ex/em: 485 nm/538 nm). FIGS. 5 and 6 show the results of the measurement.

[2] = system: spinal cord mixed neuronal-glial cultures; assay: DCF assay of toxin-induced free radical formation in spinal cord mixed neuronal-glial cultures; format: cell-based, rat
Procedure: as §1, §2

[3] = H2O2 1 mM, baicalein 2 and 10 μM
[4] = t-BOOH 0.75 mM, baicalein 2 or 10 μM, P<0.01

Compound: O=c1cc(-c2ccccc2)oc2cc(O)c(O)c(O)c12 [baicalein]
- free radical level induced by H2O2 [1, 3]: significantly reduced
- free radical level induced by t-BOOH [1, 4]: significantly inhibited
- free radical level induced by H2O2 [2, 3]: significantly reduced
- free radical level induced by t-BOOH [2, 4]: significantly inhibited
